Measured values reported in US11345712B2, “Protein-targeting compounds and pharmaceutical compositions thereof, and their therapeutic applications” (BioTheryX, Inc., priority 2019, dated 2022).

The compounds below were run on MOLM-13 cells (assay: MOLM-13 cell viability assay (CellTiter-Glo)). Details: 3 days, concentration of 1 μM.
Type: cell-based
Protocol: MOLM-13 cells were cultured in RPMI 1640 media supplemented with 10% fetal bovine serum, streptomycin, and penicillin. The cells were plated in white walled 96-well plates at 2,500 cells/well. The cells were incubated in DMSO (control) or an indicated compound for 3 days at 37° C. and 5% CO2. Following the incubation period, 100 μL of CELLTITER-GLO® (CTG) reagent was added to each well. Following a 10 minutes incubation with shaking, luminescence was measured using an ENVISION® Multimode plate reader.
For CC(C)(C)c1ccc(C(=O)C(=O)NCc2scc3c2CN(C2CCC(=O)NC2=O)C3=O)cc1 (stereo not drawn) [Compound I-40, 2-(4-(tert-butyl)phenyl)-N-((5-(2,6-dioxopiperidin-3-yl)-4-oxo-5,6-dihydro-4H-thieno[3,4-c]pyrrol-1-yl)methyl)-2-oxoacetamide], the “Antiproliferative Activity (inhibition, MOLM-13 cell viability)” value was “D (a value less than 25% inhibition)”. For CC(C)(C)c1ccc(C(=O)C(=O)NCc2cc3c(s2)C(=O)N(C2CCC(=O)NC2=O)C3)cc1 (stereo not drawn) [Compound I-35, 2-(4-(tert-butyl)phenyl)-N-((5-(2,6-dioxopiperidin-3-yl)-6-oxo-5,6-dihydro-4H-thieno[2,3-c]pyrrol-2-yl)methyl)-2-oxoacetamide], the “Antiproliferative Activity (inhibition, MOLM-13 cell viability)” value was “D (a value less than 25% inhibition)”.

Same assay, conditions: Homo sapiens, MOLM-13, 72 h, 3 days, concentration of 1 μM, read-out: Antiproliferative Activity (inhibition, MOLM-13 cell viability)
Work on CC(C)(C)c1ccc(C(=O)C(=O)NCc2csc3c2CN(C2CCC(=O)NC2=O)C3=O)cc1 (stereo not drawn) [Compound I-39, 2-(4-(tert-butyl)phenyl)-N-((5-(2,6-dioxopiperidin-3-yl)-6-oxo-5,6-dihydro-4H-thieno[2,3-c]pyrrol-3-yl)methyl)-2-oxoacetamide] yielded a cytotoxicity at 1 µM of over 80%. For CC(C)(C)C1CCC(C(=O)C(=O)NCc2ccc3c(c2)CN(C2CCC(=O)NC2=O)C3=O)CC1 (stereo not drawn) [Compound I-68, 2-(4-(tert-butyl)cyclohexyl)-N-((2-(2,6-dioxopiperidin-3-yl)-1-oxoisoindolin-5-yl)methyl)-2-oxoacetamide], the cytotoxicity at 1 µM was under 25%. O=C1CCC(N2Cc3c(csc3CNC(=O)C(=O)c3ccc(Cl)cc3)C2=O)C(=O)N1 (stereo not drawn) [Compound I-18, 2-(4-chlorophenyl)-N-((5-(2,6-dioxopiperidin-3-yl)-4-oxo-5,6-dihydro-4H-thieno[3,4-c]pyrrol-1-yl)methyl)-2-oxoacetamide] was tested, and the cytotoxicity at 1 µM was under 25%. CC(C)(C)c1ccc(CCCC(=O)NCc2scc3c2CN(C2CCC(=O)NC2=O)C3=O)cc1 (stereo not drawn) [II-84, 4-(4-(tert-butyl)phenyl)-N-((5-(2,6-dioxopiperidin-3-yl)-4-oxo-5,6-dihydro-4H-thieno[3,4-c]pyrrol-1-yl)methyl)butanamide] was tested, and the cytotoxicity at 1 µM was under 25%. Compound Cc1ccc(CC(=O)NCc2cc3c(s2)CN(C2CCC(=O)NC2=O)C3=O)cc1Cl (stereo not drawn) [II-79, 2-(3-chloro-4-methylphenyl)-N-((5-(2,6-dioxopiperidin-3-yl)-4-oxo-5,6-dihydro-4H-thieno[2,3-c]pyrrol-2-yl)methyl)acetamide] has a cytotoxicity at 1 µM of under 25%. Work on O=C1CCC(N2Cc3c(csc3CNC(=S)Nc3c(Cl)c(Cl)cc(Cl)c3Cl)C2=O)C(=O)N1 (stereo not drawn) [II-123, 1-((5-(2,6-dioxopiperidin-3-yl)-4-oxo-5,6-dihydro-4H-thieno[3,4-c]pyrrol-1-yl)methyl)-3-(2,3,5,6-tetrachlorophenyl)thiourea] yielded a cytotoxicity at 1 µM of under 25%. Compound O=C1CCC(N2Cc3c(csc3CNC(=O)C(=O)c3cccs3)C2=O)C(=O)N1 (stereo not drawn) [Compound I-9, N-((5-(2,6-dioxopiperidin-3-yl)-4-oxo-5,6-dihydro-4H-thieno[3,4-c]pyrrol-1-yl)methyl)-2-(thiophen-2-yl)-2-oxoacetamide] has a cytotoxicity at 1 µM of under 25%. CCN(CC)c1cc(NC(=O)NCc2cc3c(s2)C(=O)N(C2CCC(=O)NC2=O)C3)ccc1C (stereo not drawn) [II-47, 1-(3-(diethylamino)-4-methylphenyl)-3-((5-(2,6-dioxopiperidin-3-yl)-6-oxo-5,6-dihydro-4H-thieno[2,3-c]pyrrol-2-yl)methyl)urea] was tested, and the cytotoxicity at 1 µM was over 80%. For Cc1ccc(C(C(=O)NCc2scc3c2CN(C2CCC(=O)NC2=O)C3=O)C(C)C)cc1Cl (stereo not drawn) [II-95, 2-(3-chloro-4-methylphenyl)-N-((5-(2,6-dioxopiperidin-3-yl)-4-oxo-5,6-dihydro-4H-thieno[3,4-c]pyrrol-1-yl)methyl)-3-methylbutanamide], the cytotoxicity at 1 µM was 25 to 50%. Cc1ccc(CCCC(=O)NCc2scc3c2CN(C2CCC(=O)NC2=O)C3=O)cc1Cl (stereo not drawn) [II-41, 4-(3-chloro-4-methylphenyl)-N-((5-(2,6-dioxopiperidin-3-yl)-4-oxo-5,6-dihydro-4H-thieno[3,4-c]pyrrol-1-yl)methyl)butanamide] gave a cytotoxicity at 1 µM of 25 to 50%. O=C1CCC(N2Cc3cc(CNC(=O)C(=O)c4ccncc4)ccc3C2=O)C(=O)N1 (stereo not drawn) [Compound I-103, N-((2-(2,6-dioxopiperidin-3-yl)-1-oxoisoindolin-5-yl)methyl)-2-oxo-2-(pyridin-4-yl)acetamide] showed a cytotoxicity at 1 µM of under 25%. Work on Cc1cc(C(=O)C(=O)NCc2cccc3c2CN(C2CCC(=O)NC2=O)C3=O)ccc1C(C)(C)C (stereo not drawn) [Compound I-54, 2-(3-methyl-4-(tert-butyl)phenyl)-N-((2-(2,6-dioxopiperidin-3-yl)-1-oxoisoindolin-4-yl)methyl)-2-oxoacetamide] yielded a cytotoxicity at 1 µM of over 80%. Work on CN(C)c1cccc(NC(=O)NCc2cc3c(s2)C(=O)N(C2CCC(=O)NC2=O)C3)c1 (stereo not drawn) [II-48, 1-(3-(dimethylamino)phenyl)-3-((5-(2,6-dioxopiperidin-3-yl)-6-oxo-5,6-dihydro-4H-thieno[2,3-c]pyrrol-2-yl)methyl)urea] yielded a cytotoxicity at 1 µM of over 80%. CN1CCC(c2ccc(C(=O)C(=O)NCc3scc4c3CN(C3CCC(=O)NC3=O)C4=O)cc2)CC1 (stereo not drawn) [Compound I-31, N-((5-(2,6-dioxopiperidin-3-yl)-4-oxo-5,6-dihydro-4H-thieno[3,4-c]pyrrol-1-yl)methyl)-2-(4-(1-methylpiperidin-4-yl)phenyl)-2-oxoacetamide] was tested, and the cytotoxicity at 1 µM was under 25%. Compound Cc1ccc(NC(=O)NCc2cc3c(s2)C(=O)N(C2CCC(=O)NC2=O)C3)cc1C(C)C (stereo not drawn) [II-54, 1-((5-(2,6-dioxopiperidin-3-yl)-6-oxo-5,6-dihydro-4H-thieno[2,3-c]pyrrol-2-yl)methyl)-3-(3-isopropyl-4-methylphenyl)urea] has a cytotoxicity at 1 µM of over 80%. In the case of Cc1ccc(NC(=O)NCCc2scc3c2CN(C2CCC(=O)NC2=O)C3=O)cc1Cl (stereo not drawn) [II-31, 1-(3-chloro-4-methylphenyl)-3-(2-(5-(2,6-dioxopiperidin-3-yl)-4-oxo-5,6-dihydro-4H-thieno[3,4-c]pyrrol-1-yl)ethyl)urea], the cytotoxicity at 1 µM is reported as over 80%. For Cc1ccc(CC(=O)NCc2scc3c2CN(C2CCC(=O)NC2=O)C3=O)cc1Cl (stereo not drawn) [II-24, 2-(3-chloro-4-methylphenyl)-N-((5-(2,6-dioxopiperidin-3-yl)-4-oxo-5,6-dihydro-4H-thieno[3,4-c]pyrrol-1-yl)methyl)acetamide], the cytotoxicity at 1 µM was under 25%. Work on O=C(Cc1cccc(N2CCCCC2)c1)NCc1scc2c1CN(C1CCC(=O)NC1=O)C2=O (stereo not drawn) [II-76, N-((5-(2,6-dioxopiperidin-3-yl)-4-oxo-5,6-dihydro-4H-thieno[3,4-c]pyrrol-1-yl)methyl)-2-(3-(piperidin-1-yl)phenyl)acetamide] yielded a cytotoxicity at 1 µM of over 80%. For CC(C)(C)c1cccc(C(=O)C(=O)NCc2ccc3c(c2)CN(C2CCC(=O)NC2=O)C3=O)c1 (stereo not drawn) [Compound I-33, 2-(3-(tert-butyl)phenyl)-N-((2-(2,6-dioxopiperidin-3-yl)-1-oxoisoindolin-5-yl)methyl)-2-oxoacetamide], the cytotoxicity at 1 µM was over 80%. Compound Cc1ccc(CC(=O)NCc2csc3c2CN(C2CCC(=O)NC2=O)C3=O)cc1Cl (stereo not drawn) [II-57, 2-(3-chloro-4-methylphenyl)-N-((5-(2,6-dioxopiperidin-3-yl)-6-oxo-5,6-dihydro-4H-thieno[2,3-c]pyrrol-3-yl)methyl)acetamide] has a cytotoxicity at 1 µM of 50 to 80%. Cc1ccc(N(C)C(=O)N(C)Cc2scc3c2CN(C2CCC(=O)NC2=O)C3=O)cc1Cl (stereo not drawn) [II-20, 1-(3-chloro-4-methylphenyl)-3-((5-(2,6-dioxopiperidin-3-yl)-4-oxo-5,6-dihydro-4H-thieno[3,4-c]pyrrol-1-yl)methyl)-1,3-dimethylurea] showed a cytotoxicity at 1 µM of under 25%. Cc1ccc(NC(=O)NCc2cc3c(s2)C(=O)N([C@H]2CCC(=O)NC2=O)C3)cc1Cl [II-90, (S)-1-(3-chloro-4-methylphenyl)-3-((5-(2,6-dioxopiperidin-3-yl)-6-oxo-5,6-dihydro-4H-thieno[2,3-c]pyrrol-2-yl)methyl)urea] gave a cytotoxicity at 1 µM of over 80%. O=C1CCC(N2Cc3c(csc3CNC(=O)Nc3c(Cl)cccc3Cl)C2=O)C(=O)N1 (stereo not drawn) [II-43, 1-(2,6-dichlorophenyl)-3-((5-(2,6-dioxopiperidin-3-yl)-4-oxo-5,6-dihydro-4H-thieno[3,4-c]pyrrol-1-yl)methyl)urea] was tested, and the cytotoxicity at 1 µM was 25 to 50%. Cc1ccc(C(=O)C(=O)NCc2cccc3c2CN(C2CCC(=O)NC2=O)C3=O)cc1 (stereo not drawn) [Compound I-72, N-((2-(2,6-dioxopiperidin-3-yl)-1-oxoisoindolin-4-yl)methyl)-2-oxo-2-(p-tolyl)acetamide] showed a cytotoxicity at 1 µM of under 25%. Work on Cc1ccc(NC(=O)NCc2cc3c(s2)C(=O)N(C2CCC(=O)NC2=O)C3=O)cc1N(C)C (stereo not drawn) [II-114, 1-(3-(dimethylamino)-4-methylphenyl)-3-((5-(2,6-dioxopiperidin-3-yl)-4,6-dioxo-5,6-dihydro-4H-thieno[2,3-c]pyrrol-2-yl)methyl)urea] yielded a cytotoxicity at 1 µM of 25 to 50%. For CC(C)(C)C1CCN(C(=O)C(=O)NCc2cccc3c2CN(C2CCC(=O)NC2=O)C3=O)CC1 (stereo not drawn) [Compound I-61, 2-(4-(tert-butyl)piperidin-1-yl)-N-((2-(2,6-dioxopiperidin-3-yl)-1-oxoisoindolin-4-yl)methyl)-2-oxoacetamide], the cytotoxicity at 1 µM was under 25%. With Cc1ccc(NC(=O)NCc2cc3c(s2)C(=O)N(C2CCC(=O)N(COC(=O)[C@H](N)C(C)C)C2=O)C3)cc1N(C)C (stereo partly drawn) [II-81, (3-(2-((3-(3-(dimethylamino)-4-methylphenyl)ureido)methyl)-6-oxo-4,6-dihydro-5H-thieno[2,3-c]pyrrol-5-yl)-2,6-dioxopiperidin-1-yl)methyl D-valinate] the cytotoxicity at 1 µM was over 80%. CN(C)c1ccc(CC(=O)NCc2scc3c2CN(C2CCC(=O)NC2=O)C3=O)cc1 (stereo not drawn) [II-61, 2-(4-(dimethylamino)phenyl)-N-((5-(2,6-dioxopiperidin-3-yl)-4-oxo-5,6-dihydro-4H-thieno[3,4-c]pyrrol-1-yl)methyl)acetamide] gave a cytotoxicity at 1 µM of under 25%.
